Structure (SMILES): CCOC(=O)Cc1c(C(=O)OCC)sc(N(CC(=O)OCC)CC(=O)OCC)c1C#N
- solubility (mole fraction) (in acetone, 283.15 K): 0.0364
- solubility (mole fraction) (in acetone, 285.65 K): 0.0394
- solubility (mole fraction) (in acetone, 288.15 K): 0.043
- solubility (mole fraction) (in acetone, 290.65 K): 0.0456
- solubility (mole fraction) (in acetone, 293.15 K): 0.0498
- solubility (mole fraction) (in acetone, 295.65 K): 0.0538
- solubility (mole fraction) (in acetone, 298.15 K): 0.0582
- solubility (mole fraction) (in acetone, 300.65 K): 0.0627
- solubility (mole fraction) (in acetone, 303.15 K): 0.0672
- solubility (mole fraction) (in acetone, 305.65 K): 0.073
- solubility (mole fraction) (in acetone, 308.15 K): 0.079
- solubility (mole fraction) (in acetone, 310.65 K): 0.0853
- solubility (mole fraction) (in acetone, 313.15 K): 0.0921
- solubility (mole fraction) (in acetone, 315.65 K): 0.0995
- solubility (mole fraction) (in acetone, 318.15 K): 0.107
- solubility (mole fraction) (in acetone, 320.65 K): 0.116
- solubility (mole fraction) (in acetone, 323.15 K): 0.126
- solubility (mole fraction) (in acetonitrile, 283.15 K): 0.0196
- solubility (mole fraction) (in acetonitrile, 285.65 K): 0.0211
- solubility (mole fraction) (in acetonitrile, 288.15 K): 0.0234
- solubility (mole fraction) (in acetonitrile, 290.65 K): 0.0255
- solubility (mole fraction) (in acetonitrile, 293.15 K): 0.028
- solubility (mole fraction) (in acetonitrile, 295.65 K): 0.0303
- solubility (mole fraction) (in acetonitrile, 298.15 K): 0.0334
- solubility (mole fraction) (in acetonitrile, 300.65 K): 0.0365
- solubility (mole fraction) (in acetonitrile, 303.15 K): 0.0396
- solubility (mole fraction) (in acetonitrile, 305.65 K): 0.0433
- solubility (mole fraction) (in acetonitrile, 308.15 K): 0.0473
- solubility (mole fraction) (in acetonitrile, 310.65 K): 0.0515
- solubility (mole fraction) (in acetonitrile, 313.15 K): 0.0562
- solubility (mole fraction) (in acetonitrile, 315.65 K): 0.0612
- solubility (mole fraction) (in acetonitrile, 318.15 K): 0.067
- solubility (mole fraction) (in acetonitrile, 320.65 K): 0.0734
- solubility (mole fraction) (in acetonitrile, 323.15 K): 0.0805
- solubility (mole fraction) (in cyclohexane, 283.15 K): 5.19e-05
- solubility (mole fraction) (in cyclohexane, 285.65 K): 6.04e-05
- solubility (mole fraction) (in cyclohexane, 288.15 K): 7.21e-05
- solubility (mole fraction) (in cyclohexane, 290.65 K): 8.6e-05
- solubility (mole fraction) (in cyclohexane, 293.15 K): 0.000102
- solubility (mole fraction) (in cyclohexane, 295.65 K): 0.00012
- solubility (mole fraction) (in cyclohexane, 298.15 K): 0.000142
- solubility (mole fraction) (in cyclohexane, 300.65 K): 0.00017
- solubility (mole fraction) (in cyclohexane, 303.15 K): 0.000199
- solubility (mole fraction) (in cyclohexane, 305.65 K): 0.000236
- solubility (mole fraction) (in cyclohexane, 308.15 K): 0.000279
- solubility (mole fraction) (in cyclohexane, 310.65 K): 0.000324
- solubility (mole fraction) (in cyclohexane, 313.15 K): 0.00038
- solubility (mole fraction) (in cyclohexane, 315.65 K): 0.000444
- solubility (mole fraction) (in cyclohexane, 318.15 K): 0.000516
- solubility (mole fraction) (in cyclohexane, 320.65 K): 0.000596
- solubility (mole fraction) (in cyclohexane, 323.15 K): 0.0007
- solubility (mole fraction) (in ethanol, 283.15 K): 0.000512
- solubility (mole fraction) (in ethanol, 285.65 K): 0.000635
- solubility (mole fraction) (in ethanol, 288.15 K): 0.00079
- solubility (mole fraction) (in ethanol, 290.65 K): 0.000971
- solubility (mole fraction) (in ethanol, 293.15 K): 0.0012
- solubility (mole fraction) (in ethanol, 295.65 K): 0.00148
- solubility (mole fraction) (in ethanol, 298.15 K): 0.00178
- solubility (mole fraction) (in ethanol, 300.65 K): 0.00216
- solubility (mole fraction) (in ethanol, 303.15 K): 0.00264
- solubility (mole fraction) (in ethanol, 305.65 K): 0.0032
- solubility (mole fraction) (in ethanol, 308.15 K): 0.0038
- solubility (mole fraction) (in ethanol, 310.65 K): 0.00457
- solubility (mole fraction) (in ethanol, 313.15 K): 0.00543
- solubility (mole fraction) (in ethanol, 315.65 K): 0.00645
- solubility (mole fraction) (in ethanol, 318.15 K): 0.00768
- solubility (mole fraction) (in ethanol, 320.65 K): 0.00904
- solubility (mole fraction) (in ethanol, 323.15 K): 0.0107
- solubility (mole fraction) (in ethyl acetate, 283.15 K): 0.0224
- solubility (mole fraction) (in ethyl acetate, 285.65 K): 0.0259
- solubility (mole fraction) (in ethyl acetate, 288.15 K): 0.0296
- solubility (mole fraction) (in ethyl acetate, 290.65 K): 0.0339
- solubility (mole fraction) (in ethyl acetate, 293.15 K): 0.0389
- solubility (mole fraction) (in ethyl acetate, 295.65 K): 0.0442
- solubility (mole fraction) (in ethyl acetate, 298.15 K): 0.0509
- solubility (mole fraction) (in ethyl acetate, 300.65 K): 0.0578
- solubility (mole fraction) (in ethyl acetate, 303.15 K): 0.066
- solubility (mole fraction) (in ethyl acetate, 305.65 K): 0.0741
- solubility (mole fraction) (in ethyl acetate, 308.15 K): 0.083
- solubility (mole fraction) (in ethyl acetate, 310.65 K): 0.0927
- solubility (mole fraction) (in ethyl acetate, 313.15 K): 0.105
- solubility (mole fraction) (in ethyl acetate, 315.65 K): 0.118
- solubility (mole fraction) (in ethyl acetate, 318.15 K): 0.132
- solubility (mole fraction) (in ethyl acetate, 320.65 K): 0.146
- solubility (mole fraction) (in ethyl acetate, 323.15 K): 0.163
- solubility (mole fraction) (in isopropanol, 283.15 K): 0.000243
- solubility (mole fraction) (in isopropanol, 285.65 K): 0.000308
- solubility (mole fraction) (in isopropanol, 288.15 K): 0.000386
- solubility (mole fraction) (in isopropanol, 290.65 K): 0.000478
- solubility (mole fraction) (in isopropanol, 293.15 K): 0.000592
- solubility (mole fraction) (in isopropanol, 295.65 K): 0.000736
- solubility (mole fraction) (in isopropanol, 298.15 K): 0.00091
- solubility (mole fraction) (in isopropanol, 300.65 K): 0.00111
- solubility (mole fraction) (in isopropanol, 303.15 K): 0.00135
- solubility (mole fraction) (in isopropanol, 305.65 K): 0.00162
- solubility (mole fraction) (in isopropanol, 308.15 K): 0.00197
- solubility (mole fraction) (in isopropanol, 310.65 K): 0.00236
- solubility (mole fraction) (in isopropanol, 313.15 K): 0.00286
- solubility (mole fraction) (in isopropanol, 315.65 K): 0.00345
- solubility (mole fraction) (in isopropanol, 318.15 K): 0.00413
- solubility (mole fraction) (in isopropanol, 320.65 K): 0.00494
- solubility (mole fraction) (in isopropanol, 323.15 K): 0.00588
- solubility (mole fraction) (in methanol, 283.15 K): 0.0012
- solubility (mole fraction) (in methanol, 285.65 K): 0.00149
- solubility (mole fraction) (in methanol, 288.15 K): 0.0018
- solubility (mole fraction) (in methanol, 290.65 K): 0.0022
- solubility (mole fraction) (in methanol, 293.15 K): 0.00265
- solubility (mole fraction) (in methanol, 295.65 K): 0.00326
- solubility (mole fraction) (in methanol, 298.15 K): 0.00391
- solubility (mole fraction) (in methanol, 300.65 K): 0.00464
- solubility (mole fraction) (in methanol, 303.15 K): 0.00556
- solubility (mole fraction) (in methanol, 305.65 K): 0.00659
- solubility (mole fraction) (in methanol, 308.15 K): 0.00781
- solubility (mole fraction) (in methanol, 310.65 K): 0.00925
- solubility (mole fraction) (in methanol, 313.15 K): 0.0109
- solubility (mole fraction) (in methanol, 315.65 K): 0.0128
- solubility (mole fraction) (in methanol, 318.15 K): 0.015
- solubility (mole fraction) (in methanol, 320.65 K): 0.0174
- solubility (mole fraction) (in methanol, 323.15 K): 0.0198
- solubility (mole fraction) (in n-butanol, 283.15 K): 0.000391
- solubility (mole fraction) (in n-butanol, 285.65 K): 0.000489
- solubility (mole fraction) (in n-butanol, 288.15 K): 0.000608
- solubility (mole fraction) (in n-butanol, 290.65 K): 0.000753
- solubility (mole fraction) (in n-butanol, 293.15 K): 0.00094
- solubility (mole fraction) (in n-butanol, 295.65 K): 0.00115
- solubility (mole fraction) (in n-butanol, 298.15 K): 0.0014
- solubility (mole fraction) (in n-butanol, 300.65 K): 0.00173
- solubility (mole fraction) (in n-butanol, 303.15 K): 0.00215
- solubility (mole fraction) (in n-butanol, 305.65 K): 0.00259
- solubility (mole fraction) (in n-butanol, 308.15 K): 0.00316
- solubility (mole fraction) (in n-butanol, 310.65 K): 0.0039
- solubility (mole fraction) (in n-butanol, 313.15 K): 0.0047
- solubility (mole fraction) (in n-butanol, 315.65 K): 0.00577
- solubility (mole fraction) (in n-butanol, 318.15 K): 0.00696
- solubility (mole fraction) (in n-butanol, 320.65 K): 0.00838
- solubility (mole fraction) (in n-butanol, 323.15 K): 0.0102
- solubility (mole fraction) (in n-propanol, 283.15 K): 0.000617
- solubility (mole fraction) (in n-propanol, 285.65 K): 0.000762
- solubility (mole fraction) (in n-propanol, 288.15 K): 0.000953
- solubility (mole fraction) (in n-propanol, 290.65 K): 0.00118
- solubility (mole fraction) (in n-propanol, 293.15 K): 0.00146
- solubility (mole fraction) (in n-propanol, 295.65 K): 0.0018
- solubility (mole fraction) (in n-propanol, 298.15 K): 0.00219
- solubility (mole fraction) (in n-propanol, 300.65 K): 0.00266
- solubility (mole fraction) (in n-propanol, 303.15 K): 0.00327
- solubility (mole fraction) (in n-propanol, 305.65 K): 0.00403
- solubility (mole fraction) (in n-propanol, 308.15 K): 0.00492
- solubility (mole fraction) (in n-propanol, 310.65 K): 0.006
- solubility (mole fraction) (in n-propanol, 313.15 K): 0.00722
- solubility (mole fraction) (in n-propanol, 315.65 K): 0.00868
- solubility (mole fraction) (in n-propanol, 318.15 K): 0.0104
- solubility (mole fraction) (in n-propanol, 320.65 K): 0.0126
- solubility (mole fraction) (in n-propanol, 323.15 K): 0.015
- solubility (mole fraction) (in toluene, 283.15 K): 0.0122
- solubility (mole fraction) (in toluene, 285.65 K): 0.014
- solubility (mole fraction) (in toluene, 288.15 K): 0.0162
- solubility (mole fraction) (in toluene, 290.65 K): 0.0187
- solubility (mole fraction) (in toluene, 293.15 K): 0.0216
- solubility (mole fraction) (in toluene, 295.65 K): 0.0249
- solubility (mole fraction) (in toluene, 298.15 K): 0.0286
- solubility (mole fraction) (in toluene, 300.65 K): 0.0328
- solubility (mole fraction) (in toluene, 303.15 K): 0.0379
- solubility (mole fraction) (in toluene, 305.65 K): 0.0434
- solubility (mole fraction) (in toluene, 308.15 K): 0.0498
- solubility (mole fraction) (in toluene, 310.65 K): 0.0567
- solubility (mole fraction) (in toluene, 313.15 K): 0.0647
- solubility (mole fraction) (in toluene, 315.65 K): 0.0737
- solubility (mole fraction) (in toluene, 318.15 K): 0.0835
- solubility (mole fraction) (in toluene, 320.65 K): 0.0946
- solubility (mole fraction) (in toluene, 323.15 K): 0.107

— BigSolDB 2.1
